# Results as given in patent US20110040088A1, “FUSED HETEROCYCLIC COMPOUNDS” (priority 2003, published 2011).
# Where a name gives a salt, the structure may show the parent alone. Read-outs that look alike come from different tables or passages of the source.
# Legend:
# rat 5-HT7a receptor = molecular target: T1, rat 5-HT7a receptor (Rattus norvegicus, UniProt P32305); assay: 5-HT7 receptor radioligand binding ([3H]5-CT, membranes of transfected HEK-293 cells); settings: rat 5-HT7a in HEK-293 membranes, 1 nM [3H]5-CT
# T1 construct: expressed in transfected cells
# T1 sequence (P32305 whole entry): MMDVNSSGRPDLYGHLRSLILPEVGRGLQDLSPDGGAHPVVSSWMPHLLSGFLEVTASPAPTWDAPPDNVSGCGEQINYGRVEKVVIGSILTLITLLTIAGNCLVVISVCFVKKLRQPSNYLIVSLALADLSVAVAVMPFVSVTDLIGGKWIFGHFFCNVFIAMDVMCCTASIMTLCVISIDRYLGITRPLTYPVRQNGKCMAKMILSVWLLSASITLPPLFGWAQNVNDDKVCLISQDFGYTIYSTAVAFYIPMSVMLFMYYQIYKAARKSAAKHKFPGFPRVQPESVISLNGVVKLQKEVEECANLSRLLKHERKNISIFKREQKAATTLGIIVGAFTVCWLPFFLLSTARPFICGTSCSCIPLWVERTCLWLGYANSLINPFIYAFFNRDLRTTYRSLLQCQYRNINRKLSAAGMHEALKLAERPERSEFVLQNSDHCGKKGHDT
# [1] = molecular target: T2, human recombinant 5-HT2C receptor (Homo sapiens, UniProt P28335); assay: 5-HT2C receptor radioligand binding ([3H]mesulergine, CHO membranes);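 note: competitive displacement of the tritiated ligand, using membranes from CHO cells stably transfected with the human receptor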
# T2 sequence (P28335 33-458): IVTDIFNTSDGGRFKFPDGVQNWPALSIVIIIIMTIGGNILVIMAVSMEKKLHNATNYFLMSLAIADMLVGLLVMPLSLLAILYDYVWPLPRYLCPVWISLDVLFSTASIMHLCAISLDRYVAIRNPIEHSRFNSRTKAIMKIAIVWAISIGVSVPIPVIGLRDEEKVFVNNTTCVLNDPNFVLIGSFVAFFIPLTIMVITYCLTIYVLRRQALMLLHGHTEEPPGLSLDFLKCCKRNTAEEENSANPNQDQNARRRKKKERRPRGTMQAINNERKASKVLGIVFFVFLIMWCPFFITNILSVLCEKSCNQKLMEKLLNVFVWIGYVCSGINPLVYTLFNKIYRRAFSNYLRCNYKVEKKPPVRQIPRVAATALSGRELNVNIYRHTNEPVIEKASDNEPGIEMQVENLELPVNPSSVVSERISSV
# Method: (§1) Affinity for 5HT2 Receptor Binding Sites
# (§2) Receptor binding was performed using the human recombinant 5-HT2A (GB: X57830), 5-HT2B (GB: Z36748) and 5-HT2c (GB: M81778) receptors. The affinity of the compounds for the 3 different human 5-HT2 receptor subtypes was evaluated by competitive radioligand binding assays using [^3H]ketanserin (h5-HT2A) or [^3H]mesulergine (h5-HT2B and h5-HT2c). The assays were performed on membranes prepared from NIH3T3 stably transfected with h5-HT2A or CHO stably transfected with h5-HT2B and h5-HT2C.
# 5-HT2A receptor = 5-HT2A receptor (UniProt P28223); assay: 5-HT2A receptor radioligand binding ([3H]ketanserin);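 note: competitive displacement binding on membranes, either from rat cerebral cortex or from NIH3T3 cells stably expressing human 5-HT2A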
# Method: The affinity of the compounds for the rat 5-HT2A receptor was evaluated by competitive radioligand binding assay using [^3H]ketanserine as the radioligand. The assay was performed on membranes from rat cortex as previously described (Schotte, A. et al., Psychopharmacology (1996) 124: 57-73). Briefly, brain tissue (rat cortex) was homogenized in 20 volumes per wet weight tissue of Tris-HCl buffer (50 mM, pH 7.4). The total membrane fraction was collected by centrifugation and washed by subsequent centrifugation runs (25 min at 25,000 g at 4° C.). Membranes were re-suspended in Tris-HCl buffer (50 mM, pH 7.4) containing 1 nM [^3H]ketanserin. Non-specific binding was estimated in the presence of 10 μM risperidone.
# [2] = molecular target: human recombinant 5-HT2B receptor (Homo sapiens, UniProt P41595); assay: 5-HT2B receptor radioligand binding ([3H]mesulergine, CHO membranes);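 note: competitive displacement binding on membranes of CHO cells stably expressing the receptor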
# Sequence of human recombinant 5-HT2B receptor (P41595 whole entry): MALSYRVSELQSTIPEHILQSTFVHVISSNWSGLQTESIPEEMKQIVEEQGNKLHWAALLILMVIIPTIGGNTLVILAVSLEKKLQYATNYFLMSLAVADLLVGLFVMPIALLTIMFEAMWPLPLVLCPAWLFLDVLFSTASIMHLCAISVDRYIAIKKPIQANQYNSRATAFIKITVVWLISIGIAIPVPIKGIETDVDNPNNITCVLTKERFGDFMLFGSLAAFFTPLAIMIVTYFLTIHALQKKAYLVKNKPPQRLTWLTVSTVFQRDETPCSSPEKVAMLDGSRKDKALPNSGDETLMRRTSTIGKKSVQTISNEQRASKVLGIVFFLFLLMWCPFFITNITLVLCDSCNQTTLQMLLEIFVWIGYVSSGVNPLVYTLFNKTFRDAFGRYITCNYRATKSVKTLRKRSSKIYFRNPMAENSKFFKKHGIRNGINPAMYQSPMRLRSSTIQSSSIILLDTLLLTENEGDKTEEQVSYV
# Method: as §1, §2
# [3] = read-out: Ki 5-HT2A, table does not say whether rat cortex or human recombinant (NIH3T3) receptor
SMILES,Ki (rat 5-HT7a receptor) [nM],Ki (5-HT2A receptor; [3]) [nM],"Ki (5-HT2A receptor; read-out: Ki 5-HT2A, table does not say whether rat cortex or human recombinant (NIH3T3) receptor, citrate salt) [nM]",Ki [1] [nM],Ki [2] [nM]
"Cc1c(-c2ccccc2)c2c(n1Cc1ccccc1)CCNC2 [Example 17, 1-Benzyl-2-methyl-3-phenyl-4,5,6,7-tetrahydro-1H-pyrrolo[3,2-c]pyridine]",70,,,,
"CCC(C)n1nc2c(c1-c1ccc(C(F)(F)F)cc1)CCNCC2 (stereo not shown) [Example 301, 2-sec-Butyl-3-(4-trifluoromethyl-phenyl)-2,4,5,6,7,8-hexahydro-1,2,6-triaza-azulene]",40,1.6,,100,3
"Fc1cccc(Cn2nc(-c3ccc(Cl)cc3)c3c2CCNCC3)c1 [Example 76, 3-(4-Chloro-phenyl)-1-(3-fluoro-benzyl)-1,4,5,6,7,8-hexahydro-1,2,6-triaza-azulene]",8,210,,690,350
"c1ccc(Cn2nc(-c3cccs3)c3c2CCNCC3)cc1 [Example 104, 1-Benzyl-3-thiophen-2-yl-1,4,5,6,7,8-hexahydro-1,2,6-triaza-azulene]",9,80,,360,52
"Clc1ccc(-c2nn(Cc3cccs3)c3c2CCNCC3)cc1 [Example 103, 3-(4-Chloro-phenyl)-1-thiophen-2-ylmethyl-1,4,5,6,7,8-hexahydro-1,2,6-triaza-azulene]",7.7,60,,150,44
"Cc1ccc(-c2c3c(nn2C2CCCC2)CC(C)NCC3)cc1 (stereo not shown) [Example 310, 2-Cyclopentyl-7-methyl-3-p-tolyl-2,4,5,6,7,8-hexahydro-1,2,6-triaza-azulene]",475,0.2,,30,0.4
"CCc1ccc(-c2c3c(nn2CC)CCNCC3)cc1 [Example 257, 2-Ethyl-3-(4-ethyl-phenyl)-2,4,5,6,7,8-hexahydro-1,2,6-triaza-azulene]",9,,,110,2
"COc1ccc(CN2CCc3[nH]nc(-c4ccc(Cl)cc4)c3CC2)cc1OC [Example 167, 3-(4-Chloro-phenyl)-6-(3,4-dimethoxy-benzyl)-1,4,5,6,7,8-hexahydro-1,2,6-triaza-azulene]",75,,,10000,350
"Clc1ccc(-c2nn(C3CCCCCCC3)c3c2CCNCC3)cc1 [Example 255, 3-(4-Chloro-phenyl)-1-cyclooctyl-1,4,5,6,7,8-hexahydro-1,2,6-triaza-azulene]",60,,,,
"CCn1nc2c(c1-c1ccc(C)cc1)CCNCC2 [Example 214, 2-Ethyl-3-p-tolyl-2,4,5,6,7,8-hexahydro-1,2,6-triaza-azulene]",5,,,170,2
"Clc1ccc(-c2nn(CC3CCOCC3)c3c2CCNCC3)cc1 [Example 120, 3-(4-Chloro-phenyl)-1-(tetrahydro-pyran-4-ylmethyl)-1,4,5,6,7,8-hexahydro-1,2,6-triaza-azulene]",40,,,,
"Clc1ccc(-c2nn(Cc3ccccc3)c3c2CCNCC3)cc1 [Example 273, 1-Benzyl-3-(4-chloro-phenyl)-1,4,5,6,7,8-hexahydro-1,2,6-triaza-azulene citrate salt]",5,,400,,
"Fc1ccc(Cn2nc(-c3ccc(Cl)cc3)c3c2CCNCC3)c(F)c1 [Example 108, 3-(4-Chloro-phenyl)-1-(2,4-difluoro-benzyl)-1,4,5,6,7,8-hexahydro-1,2,6-triaza-azulene]",9,,,800,100
"Cc1ccccc1Cn1nc(-c2ccc(Cl)cc2)c2c1CCNCCC2 [Example 174, 3-(4-Chloro-phenyl)-1-(2-methyl-benzyl)-4,5,6,7,8,9-hexahydro-1H-1,2,7-triaza-cyclopentacyclooctene]",40,,,,
"c1ccc(Cn2cc(-c3ccccc3)c3c2CCNCC3)cc1 [Example 26, 1-Benzyl-3-phenyl-1,4,5,6,7,8-hexahydro-pyrrolo[2,3-d]azepine]",18,,,,
"Clc1ccc(-c2nn(-c3ccccc3)c3c2CCNCC3)cc1 [Example 172, 3-(4-Chloro-phenyl)-1-phenyl-1,4,5,6,7,8-hexahydro-1,2,6-triaza-azulene]",37,,,,
"CC(C)n1nc2c(c1-c1ccc([N+](=O)[O-])cc1)CCNCC2 [Example 253, 2-Isopropyl-3-(4-nitro-phenyl)-2,4,5,6,7,8-hexahydro-1,2,6-triaza-azulene]",75,,,625,25
"CCC(CC)Cn1nc(-c2ccc(Cl)cc2)c2c1CCNCC2 [Example 114, 3-(4-Chloro-phenyl)-1-(2-ethyl-butyl)-1,4,5,6,7,8-hexahydro-1,2,6-triaza-azulene]",32,,,400,90

# Now from value to compound, other results behind:
Ki (rat 5-HT7a receptor) [nM],Ki (5-HT2A receptor; [3]) [nM],"Ki (5-HT2A receptor; read-out: Ki 5-HT2A, table does not say whether rat cortex or human recombinant (NIH3T3) receptor, citrate salt) [nM]",SMILES,Ki [1] [nM],Ki [2] [nM]
17,,,"C=CCCn1nc(-c2ccc(Cl)cc2)c2c1CCNCC2 [Example 111, 1-But-3-enyl-3-(4-chloro-phenyl)-1,4,5,6,7,8-hexahydro-1,2,6-triaza-azulene]",,
61,1,,"CCC(CC)n1nc2c(c1-c1ccccc1)CCNCC2 [Example 186, 2-(1-Ethyl-propyl)-3-phenyl-2,4,5,6,7,8-hexahydro-1,2,6-triaza-azulene]",20,24
50,5,,"CCC(C)n1nc2c(c1-c1ccccc1)CCNCC2 (stereo not shown) [Example 298, 2-sec-Butyl-3-phenyl-2,4,5,6,7,8-hexahydro-1,2,6-triaza-azulene]",60,6.5
15,4,,"c1csc(-c2c3c(nn2C2CCCC2)CCNCC3)c1 [Example 233, 2-Cyclopentyl-3-thiophen-2-yl-2,4,5,6,7,8-hexahydro-1,2,6-triaza-azulene]",16,25
85,3,,"Clc1ccc(-c2c3c(nn2C2CCCCC2)CCNCC3)cc1 [Example 178, 3-(4-Chloro-phenyl)-2-cyclohexyl-2,4,5,6,7,8-hexahydro-1,2,6-triaza-azulene]",,3
8,20,,"CC(C)Cn1nc(-c2ccc(Cl)cc2)c2c1CCNCC2 [Example 118, 3-(4-Chloro-phenyl)-1-isobutyl-1,4,5,6,7,8-hexahydro-1,2,6-triaza-azulene]",,
20,,,"Clc1ccc(-c2nn(CC3CCCCC3)c3c2CCNCC3)cc1 [Example 117, 3-(4-Chloro-phenyl)-1-cyclohexylmethyl-1,4,5,6,7,8-hexahydro-1,2,6-triaza-azulene]",,
25,,,"Cc1ccc(-c2cn(Cc3ccccc3)c3c2CNCC3)cc1 [Example 18, 1-Benzyl-3-p-tolyl-4,5,6,7-tetrahydro-1H-pyrrolo[3,2-c]pyridine]",,
19,18,,"CCn1nc2c(c1-c1ccc(Cl)cc1)CCNCC2 [Example 64, 3-(4-Chloro-phenyl)-2-ethyl-2,4,5,6,7,8-hexahydro-1,2,6-triaza-azulene]",,
120,,,"O=[N+]([O-])c1ccc(-c2cn(Cc3ccccc3)c3c2CNCC3)cc1 [Example 1, 1-Benzyl-3-(4-nitro-phenyl)-4,5,6,7-tetrahydro-1H-pyrrolo[3,2-c]pyridine]",,
30,,,"CCC(CC)n1nc2c(c1-c1cccs1)CCNCC2 [Example 191, 2-(1-Ethyl-propyl)-3-thiophen-2-yl-2,4,5,6,7,8-hexahydro-1,2,6-triaza-azulene]",,
30,,,"CS(=O)(=O)Nc1ccc(Cn2nc(-c3ccccc3)c3c2CCNCC3)cc1 [Example 100, N-[4-(3-Phenyl-5,6,7,8-tetrahydro-4H-1,2,6-triaza-azulen-1-ylmethyl)-phenyl]-methanesulfonamide]",,
39,,,"Clc1ccc(-c2nn(Cc3ccc4c(c3)OCO4)c3c2CCNCC3)cc1 [Example 119, 1-Benzo[1,3]dioxo1-5-ylmethyl-3-(4-chloro-phenyl)-1,4,5,6,7,8-hexahydro-1,2,6-triaza-azulene]",,
33,,,"OCCCCCn1nc(-c2ccc(Cl)cc2)c2c1CCNCC2 [Example 87, 5-[3-(4-Chloro-phenyl)-5,6,7,8-tetrahydro-4H-1,2,6-triaza-azulen-1-yl]-pentan-1-ol]",,
30,8,,"CC(C)(C)n1nc2c(c1-c1ccccc1)CCNCC2 [Example 215, 2-tert-Butyl-3-phenyl-2,4,5,6,7,8-hexahydro-1,2,6-triaza-azulene]",,95
40,,,"O=[N+]([O-])c1ccc(Cn2nc(-c3ccc(Cl)cc3)c3c2CCNCC3)cc1 [Example 98, 3-(4-Chloro-phenyl)-1-(4-nitro-benzyl)-1,4,5,6,7,8-hexahydro-1,2,6-triaza-azulene]",,
15,,,"CCCN1CCc2c(-c3ccccc3)nn(Cc3ccccc3)c2CC1 [Example 57, 1-Benzyl-3-phenyl-6-propyl-1,4,5,6,7,8-hexahydro-1,2,6-triaza-azulene]",,
45,,,"CCCCn1cc(-c2ccc(C)cc2)c2c1CCNC2 [Example 22, 1-Butyl-3-p-tolyl-4,5,6,7-tetrahydro-1H-pyrrolo[3,2-c]pyridine]",,
